According to US20230106523A1, “QUERCETIN ENHANCEMENT FORMULATION” (SMARTDNA PTY LTD, priority 2020, published 2023):
“And” between values parts separate entries of the source, which are not always exact repeats. Identical values can stand only once.

Columns and labels:
[1] = Human trial: blood serum levels of quercetin after ingestion, HPLC-UV; format: in vivo; details: human subject, 80 mg quercetin oral
Protocol: The concentration of quercetin in the blood of a human subject was measured over four hours following ingestion of: • (a) 80 mg quercetin and 200 ml filtered water, • (b) 80 mg quercetin and 200 ml grapefruit extract.
The grapefruit extract consisted of grapefruit juice that was squeezed from the grapefruit with a juicer. The collected juice was freeze-dried and redissolved as a concentrate (4 times) using water for solubilising.
The total amount of 6,7-DHB administered in the grapefruit extract in (b) above was estimated to be about 5.9 mg.
In both experiments, the quercetin was administered as a powder washed down with filtered water.
For the quercetin and grapefruit extract test, the grapefruit extract was taken two hours before the quercetin.
Serum samples were taken from the subject at 15 minute intervals. The samples were extracted into ethyl acetate and the concentration of quercetin determined using HPLC with UV detection at 315 nm. Carbamazepine was used as an internal standard.
A linear relationship for the standard curve was achieved over the range of quercetin standards of 2-150 ng/mL (using weighted linear retgression 1/x^2).
The lower limit of quantification (LLOQ) for the method was determined to be 2 ng/mL (using FDA guidelines for bio-analytical procedures) and the limit of detection was estimated to be 1 ng/mL.

[2] = Rat study: serum quercetin concentration after oral gavage; format: in vivo, Sprague-Dawley rats; details: for concentration of quercetin in the serum from individual rats: one column per rat
Protocol: Rats were administered: • (a) Quercetin • (b) American Ruby Red grapefruit extract • (c) Quercetin and American Ruby Red grapefruit extract • (d) grapefruit extract • (e) grapefruit extract and quercetin
5 groups of 8 male Sprague-Dawley rats, aged approximately 14 weeks, weighing 350-400 gm were used in the study. The rats were bred at Hercus-Taeri Resource Unity. All of the rats were healthy and had no medication history.
1. The quercetin was dissolved in distilled water at 12.0 mg/ml immediately prior to administration.
2. American Ruby Red grapefruit was cut in half and juice obtained by manual squeezing.
The grapefruit extract used was a commercially obtained grapefruit juice.
3. A known volume of each of the grapefruit juices was lyophilized. Once dry, the residue was resuspended in distilled water to 25% of its original volume. This reduced the volume to be gavaged to each rat in the relevant groups to make the quantities of active agents administered as high as practical.
4. The quercetin/grapefruit juice formulations were prepared by dissolving the quercetin in the concentrated juices at 12.0 mg/ml.
GROUP 1. Each animal in this group received quercetin at 15 mg per kg body weight administered by oral gavage.
GROUP 2. Each animal in this group received the concentrated New Zealand grapefruit juice (American Ruby Red) at 2.5 ml per kg body weight administered by oral gavage.
GROUP 3. Each animal in this group received quercetin dissolved in the concentrated New
Zealand grapefruit juice (American Ruby Red) administered by oral gavage. The juice was administered so as to provide 15 mg quercetin per kg body weight.
GROUP 4. Each animal in this group received the concentrated grapefruit juice (prepared by Cedenco Ltd) at 2.5 ml per kg body weight administered by oral gavage.
GROUP 5. Each animal in this group received quercetin dissolved in the concentrated grapefruit juice (prepared by Cedenco Ltd) at 2.5 ml per kg body weight administered by oral gavage. The quercetin was dissolved so that it was administered at 15 mg per kg body weight.
1. A 0.5 ml time zero blood sample was taken from each animal from the lateral saphenous vein. The animals were anaesthetized using Halothane in oxygen (3.5% for knockdown, 2.5 to 3.0% for maintenance). The vein was cannulated. The zero-time blood sample was taken from each group of rats the day before the animals were gavaged. Following the collection of the blood sample, a 0.5 ml aliquot of sterile normal saline was given by intraperitoneal (IP) injection.
2. The test sample was prepared freshly immediately prior to the gavaging of each group of rats. Each animal was weighed and the volume of the test sample to be administered calculated.
3. Each rat was gavaged using proprietary gavaging needles (Popper). Once gavaging was complete the animals were left for 10 minutes before being anaesthetized using Halothane in oxygen (3.5% for knockdown, 2.5 to 3.0% for maintenance).
4. […] After each collection an equal volume of sterile saline was administered to each animal via an IP injection. The blood samples were immediately transferred to serum separating microtainer tubes (Becton Dickinson Cat. No 365956) and left to clot for 30 minutes at room temperature. The tubes were centrifuged at 3000 rpm for 10 minutes in a Beckman J6 centrifuge with a swing-out rotor. The sera were pipetted off and transferred into Eppendorf tubes/cryovials which were stored at −80° C.
The sera samples were sent to the Institute of Environmental Science and Research (ESR) (Kenepuru, Wellington, New Zealand) for quantitation of the concentration of quercetin in each. The detection limit for quercetin in serum was 5 ng/ml.

[3] = cited from earlier work
[4] = cited from earlier work; remark: listed apart in the source

Compound: O=c1c(O)c(-c2ccc(O)c(O)c2)oc2cc(O)cc(O)c12 [Quercetin, 2-(3,4-dihydroxyphenyl)-3,5,7-trihydroxy-4H-chromen-4-one]
- concentration at 0 min ([1]; time 0 min): 0 ng/mL
- concentration at 15 min ([1]; time 15 min): 1 ng/mL
- concentration at 30 min ([1]; time 30 min): 2.3 ng/mL
- concentration at 45 min ([1]; time 45 min): 3.8 ng/mL
- concentration at 60 min ([1]; time 60 min): 3.1 ng/mL
- concentration at 75 min ([1]; time 75 min): 1 ng/mL
- concentration at 90 min ([1]; time 90 min): 0 ng/mL
- concentration at 105 min ([1]; time 105 min): 0 ng/mL
- concentration at 120 min ([1]; time 120 min): 0 ng/mL
- concentration at 135 min ([1]; time 135 min): 0 ng/mL
- concentration at 150 min ([1]; time 150 min): 0 ng/mL
- concentration at 165 min ([1]; time 165 min): 0 ng/mL
- concentration at 180 min ([1]; time 180 min): 0 ng/mL
- concentration at 195 min ([1]; time 195 min): 0 ng/mL
- concentration at 210 min ([1]; time 210 min): 0 ng/mL
- concentration at 225 min ([1]; time 225 min): 0 ng/mL
- concentration at 240 min ([1]; time 240 min): 0 ng/mL
- concentration of quercetin in the serum from individual rats ([2]; 0 min (sample taken the day before gavage)): 0
- concentration of quercetin in the serum from individual rats ([2]; 30 min after oral gavage, quercetin 15 mg/kg and/or concentrated juice 2.5 ml/kg): 0
- rats (of eight) showing quercetin in the serum ([2]; 30 minutes after administration): none was detected in any of the animals
- concentration of quercetin in the serum from individual rats ([2]; 60 min after oral gavage, quercetin 15 mg/kg and/or concentrated juice 2.5 ml/kg, listed as Quercetin alone): 0 (7×) and 2
- concentration of quercetin in the serum from individual rats ([2]; 90 min after oral gavage, quercetin 15 mg/kg and/or concentrated juice 2.5 ml/kg, listed as Quercetin alone): 0 (7×) and 2
- concentration of quercetin in the serum from individual rats ([2]; 120 min after oral gavage, quercetin 15 mg/kg and/or concentrated juice 2.5 ml/kg, listed as Quercetin alone): 0 (7×) and 2
- bioavailability of active quercetin (duration) ([3]; human studies (Graefe 1999)): no more than 10 minutes
- elimination half-life ([3]; humans, after ingesting quercetin foods or supplements): 1 to 2 h
- bioavailability of quercetin in humans ([3]; humans): 0-50%
- water solubility [4]: low
